# Numbered stars: 1 amine (or outer) side, 2 acyl side, 3 side chain; on linkers, the order of the positions; unused ones are H or OH. Bridge positions count the residues as written; N and C are the ends. Square brackets hold non-standard residues; d marks the D form. Peptide text beside a SMILES is read from it. Suc = O=C(CCC(=O)[*:2])[*:1]; Orn = NCCC[C@H](N)C(=O)O
# System: calcium concentration in the serum
# Assay: Test 1: reduction of calcium level in serum after tail vein administration to rats
# Assay type: in vivo, rats of the Wistar strain
# Conditions: 1 ml/kg tail vein, female Wistar rats
# Outline: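 Female Wistar rats, six weeks old, were assigned in groups of 4 and given the test peptides through the tail vein at 1 ml/kg. The peptides were dissolved in 1% aqueous sodium acetate (pH 4,0) containing 0.1% BSA. Blood (0.3 ml) was drawn from the neck vein immediately before dosing and at set times afterward. Serum was separated by centrifuging at 3500 rpm for 20 minutes. Calcium was measured on a TBA-380 analyzer with a Wako o-cpc kit, and the percentage reduction in serum calcium was calculated.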
# [1] = concentration 83 ng/ml, 0 hour (just before administration)
# [2] = concentration 83 ng/ml, 2 hours
# [3] = concentration 83 ng/ml, 4 hours
# [4] = concentration 83 ng/ml, 6 hours
# [5] = concentration 830 ng/ml, 0 hour (just before administration)
# [6] = concentration 830 ng/ml, 1 hour
# [7] = concentration 830 ng/ml, 2 hours
# [8] = concentration 830 ng/ml, 4 hours
# [9] = concentration 830 ng/ml, 6 hours
SMILES,Serum calcium level as percent of pre-dose baseline [1] [%],"Serum calcium level as percent of pre-dose baseline (concentration 83 ng/ml, 1 hour) [%]",Serum calcium level as percent of pre-dose baseline [2] [%],Serum calcium level as percent of pre-dose baseline [3] [%],Serum calcium level as percent of pre-dose baseline [4] [%],Serum calcium level as percent of pre-dose baseline [5] [%],Serum calcium level as percent of pre-dose baseline [6] [%],Serum calcium level as percent of pre-dose baseline [7] [%],Serum calcium level as percent of pre-dose baseline [8] [%],Serum calcium level as percent of pre-dose baseline [9] [%]
CC[C@H](C)[C@H](NC(=O)[C@H](C)NC(=O)[C@@H](NC(=O)[C@H](CCC(N)=O)NC(=O)[C@@H]1CCCN1C(=O)[C@H](Cc1ccc(O)cc1)NC(=O)[C@@H](NC(=O)[C@H](CCC(N)=O)NC(=O)[C@H](CC(C)C)NC(=O)[C@H](CCCCN)NC(=O)[C@H](Cc1c[nH]cn1)NC(=O)[C@H](CC(C)C)NC(=O)[C@H](CCC(=O)O)NC(=O)[C@H](CCC(N)=O)NC(=O)[C@H](CO)NC(=O)[C@H](CC(C)C)NC(=O)[C@H](CCCCN)NC(=O)CNC(=O)[C@H](CC(C)C)NC(=O)[C@H](CC(C)C)NC(=O)[C@@H]1CCCCNC(=O)C[C@H](N)C(=O)N[C@@H](CC(N)=O)C(=O)N[C@@H](CC(C)C)C(=O)N[C@@H](CO)C(=O)N[C@@H]([C@@H](C)O)C(=O)N1)[C@@H](C)O)[C@@H](C)O)C(=O)NCC(=O)N[C@H](C(=O)NCC(=O)N[C@@H](C)C(=O)N1CCC[C@H]1C(N)=O)C(C)C [Peptide No. 24] (H-DNLSTKLLGKLSQELHKLQTYPQTAIGVGAP-NH2; lactam 1-6),100.0,71.1,70.7,85.6,80.1,100.0,69.1,61.9,54.4,53.0
CC[C@H](C)[C@H](NC(=O)[C@H](C)NC(=O)[C@@H](NC(=O)[C@H](CCC(N)=O)NC(=O)[C@@H]1CCCN1C(=O)[C@H](Cc1ccc(O)cc1)NC(=O)[C@@H](NC(=O)[C@H](CCC(N)=O)NC(=O)[C@H](CC(C)C)NC(=O)[C@H](CCCCN)NC(=O)[C@H](Cc1c[nH]cn1)NC(=O)[C@H](CC(C)C)NC(=O)[C@H](CCC(=O)O)NC(=O)[C@H](CCC(N)=O)NC(=O)[C@H](CO)NC(=O)[C@H](CC(C)C)NC(=O)[C@H](CCCCN)NC(=O)CNC(=O)[C@H](CC(C)C)NC(=O)[C@H](CC(C)C)NC(=O)[C@@H]1CCCCNC(=O)C[C@H](NC(C)=O)C(=O)N[C@@H](CC(N)=O)C(=O)N[C@@H](CC(C)C)C(=O)N[C@@H](CO)C(=O)N[C@@H]([C@@H](C)O)C(=O)N1)[C@@H](C)O)[C@@H](C)O)C(=O)NCC(=O)N[C@H](C(=O)NCC(=O)N[C@@H](C)C(=O)N1CCC[C@H]1C(N)=O)C(C)C [Peptide No. 25] (Ac-DNLSTKLLGKLSQELHKLQTYPQTAIGVGAP-NH2; lactam 1-6),100.0,76.9,67.6,66.7,71.3,100.0,73.4,64.3,51.8,44.3
CC[C@H](C)[C@H](NC(=O)[C@H](C)NC(=O)[C@@H](NC(=O)[C@H](CCC(N)=O)NC(=O)[C@@H]1CCCN1C(=O)[C@H](Cc1ccc(O)cc1)NC(=O)[C@@H](NC(=O)[C@H](CCC(N)=O)NC(=O)[C@H](CC(C)C)NC(=O)[C@H](CCCCN)NC(=O)[C@H](Cc1c[nH]cn1)NC(=O)[C@H](CC(C)C)NC(=O)[C@H](CCC(=O)O)NC(=O)[C@H](CCC(N)=O)NC(=O)[C@H](CO)NC(=O)[C@H](CC(C)C)NC(=O)[C@H](CCCCN)NC(=O)CNC(=O)[C@H](CC(C)C)NC(=O)[C@H](CC(C)C)NC(=O)[C@@H]1CCCCNC(=O)CCC(=O)N[C@@H](CC(N)=O)C(=O)N[C@@H](CC(C)C)C(=O)N[C@@H](CO)C(=O)N[C@@H]([C@@H](C)O)C(=O)N1)[C@@H](C)O)[C@@H](C)O)C(=O)NCC(=O)N[C@H](C(=O)NCC(=O)N[C@@H](C)C(=O)N1CCC[C@H]1C(N)=O)C(C)C [Peptide No. 26] (NLSTKLLGKLSQELHKLQTYPQTAIGVGAP-NH2; linker N-5 via Suc),100.0,78.9,67.6,70.4,75.2,100.0,73.9,62.9,52.1,48.2
CC[C@H](C)[C@H](NC(=O)[C@H](C)NC(=O)[C@@H](NC(=O)[C@H](CCC(N)=O)NC(=O)[C@@H]1CCCN1C(=O)[C@H](Cc1ccc(O)cc1)NC(=O)[C@@H](NC(=O)[C@H](CCC(N)=O)NC(=O)[C@H](CC(C)C)NC(=O)[C@H](CCCCN)NC(=O)[C@H](Cc1c[nH]cn1)NC(=O)[C@H](CC(C)C)NC(=O)[C@H](CCC(=O)O)NC(=O)[C@H](CCC(N)=O)NC(=O)[C@H](CO)NC(=O)[C@H](CC(C)C)NC(=O)[C@H](CCCCN)NC(=O)CNC(=O)[C@H](CC(C)C)NC(=O)[C@H](CCSC)NC(=O)[C@@H]1CC(=O)NCCCC[C@H](N)C(=O)N[C@@H](CC(N)=O)C(=O)N[C@@H](CC(C)C)C(=O)N[C@@H](CO)C(=O)N[C@@H]([C@@H](C)O)C(=O)N1)[C@@H](C)O)[C@@H](C)O)C(=O)NCC(=O)N[C@H](C(=O)NCC(=O)N[C@@H](C)C(=O)N1CCC[C@H]1C(N)=O)C(C)C [Peptide No. 27] (H-KNLSTDMLGKLSQELHKLQTYPQTAIGVGAP-NH2; lactam 1-6),100.0,93.5,94.3,86.4,82.7,100.0,79.5,94.1,87.0,82.9
CC[C@H](C)[C@H](NC(=O)[C@H](C)NC(=O)[C@@H](NC(=O)[C@H](CCC(N)=O)NC(=O)[C@@H]1CCCN1C(=O)[C@H](Cc1ccc(O)cc1)NC(=O)[C@@H](NC(=O)[C@H](CCC(N)=O)NC(=O)[C@H](CC(C)C)NC(=O)[C@H](CCCCN)NC(=O)[C@H](Cc1c[nH]cn1)NC(=O)[C@H](CC(C)C)NC(=O)[C@H](CCC(=O)O)NC(=O)[C@H](CCC(N)=O)NC(=O)[C@H](CO)NC(=O)[C@H](CC(C)C)NC(=O)[C@H](CCCCN)NC(=O)CNC(=O)[C@H](CC(C)C)NC(=O)[C@H](CC(C)C)NC(=O)[C@@H]1CC(=O)NCCCC[C@H](N)C(=O)N[C@@H](CC(N)=O)C(=O)N[C@@H](CC(C)C)C(=O)N[C@@H](CO)C(=O)N[C@@H]([C@@H](C)O)C(=O)N1)[C@@H](C)O)[C@@H](C)O)C(=O)NCC(=O)N[C@H](C(=O)NCC(=O)N[C@@H](C)C(=O)N1CCC[C@H]1C(N)=O)C(C)C [Peptide No. 28] (H-KNLSTDLLGKLSQELHKLQTYPQTAIGVGAP-NH2; lactam 1-6),100.0,83.7,87.7,82.6,80.8,100.0,73.5,87.2,83.8,81.6
CC[C@H](C)[C@H](NC(=O)[C@H](C)NC(=O)[C@@H](NC(=O)[C@H](CCC(N)=O)NC(=O)[C@@H]1CCCN1C(=O)[C@H](Cc1ccc(O)cc1)NC(=O)[C@@H](NC(=O)[C@H](CCC(N)=O)NC(=O)[C@H](CC(C)C)NC(=O)[C@H](CCCCN)NC(=O)[C@H](Cc1c[nH]cn1)NC(=O)[C@H](CC(C)C)NC(=O)[C@H](CCC(=O)O)NC(=O)[C@H](CCC(N)=O)NC(=O)[C@H](CO)NC(=O)[C@H](CC(C)C)NC(=O)[C@H](CCCCN)NC(=O)CNC(=O)[C@H](CC(C)C)NC(=O)[C@H](CC(C)C)NC(=O)[C@@H]1CCCNC(=O)CC[C@H](N)C(=O)N[C@@H](CC(N)=O)C(=O)N[C@@H](CC(C)C)C(=O)N[C@@H](CO)C(=O)N[C@@H]([C@@H](C)O)C(=O)N1)[C@@H](C)O)[C@@H](C)O)C(=O)NCC(=O)N[C@H](C(=O)NCC(=O)N[C@@H](C)C(=O)N1CCC[C@H]1C(N)=O)C(C)C [Peptide No. 29] (H-ENLST[Orn]LLGKLSQELHKLQTYPQTAIGVGAP-NH2; lactam 1-6),100.0,84.6,91.7,83.2,76.6,100.0,75.0,84.7,78.0,73.1
